Assay results taken from patent US20090069300A1, “ISOQUINOLINYL AND ISOINDOLINYL DERIVATIVES AS HISTAMINE-3 ANTAGONISTS” (Wyeth, priority 2007, published 2009).
Where a name gives a salt, the structure may show the parent alone.

These compounds were tested against T1, Human Histamine H3 Receptor (Homo sapiens, UniProt Q9Y5N1) (assay: Methyl histamine binding in human histamine H3 receptor cell line). Details: read-out: H3 Binding Ki.
T1 construct: expressed in transfected cells; host or cells: HEK293T (stably transfected; membranes prepared from the cells)
Method: Evaluation of Methyl Histamine Binding in Human Histamine H3 Receptor Cell Line
The affinity of test compounds for the histamine 3 (H3) receptor is evaluated in the following manner. […] Cells are scraped from the plate, transferred to centrifuge tubes, washed one time in PBS by centrifugation in a Sorvall RT7 Plus centrifuge (2000 rpm 10 minutes, 4° C.). The resulting pellets are stored at −80° C. until ready for use. Cells are re-suspended in buffer (50 mM Tris pH=7.5) and placed in a Dounce homogenizer, douncing ten times to homogenize cells. The homogenate is spun down by centrifugation (Sorvall RT7 Plus, 1800 rpm 10 minutes, 4° C.). The supernatant is placed in a Corex tube and spun down by centrifugation (Sorvall RC 5c Plus, 17,000 rpm 20 minutes, 4° C.). The pellet is resuspended in buffer (50 mM Tris, pH 7.5). Protein concentration (ug/ul) is determined using the Micro-BCA Protein Determination. The binding assay is set up in a 96 well microtiter plate in a total volume of 250 uL. Non-specific binding is determined in the presence of 10 uM clobenpropit. The final radioligand concentration is 1 nM. The test compound is serially diluted using the Beckman Biomek2000 to a final approximate range of 100 uM to 100 pM. Membranes are suspended in buffer, homogenized in 2 bursts of ten seconds using a Vitris mechanical homogenizer set at power setting 5. Ten μg of membranes are added to each well. Following a one hour incubation at 30° C., the reaction is terminated by the addition of ice cold buffer and rapid filtration with a Packard Filtermate Harvester through a GF/B filter pre-soaked with 1% PEI for one hour. The plate is dried for one hour at 37° C. and 60 μL Microscint Scintillant is added to each well. The CPM per well is measured on a Packard Top Count NXT. Ki values are determined in nM. […] CPM values are expressed as % specific binding and plotted vs compound concentration. A curve is fitted using a four-parameter logistic fit and the IC50 value is determined. The Ki is calculated from this using the Cheng-Prusoff equation: […]=IC50/1+(L/Kd) where L=concentration of free radioligand used in the assay, and Kd is the dissociation constant of the radioligand for the receptor. L is determined for each experiment by counting an aliquot of the diluted radioligand (corresponding to that added to each well) and the Kd has previously been determined under identical conditions for this cell line/radioligand.

T1 sequence (Q9Y5N1 whole entry): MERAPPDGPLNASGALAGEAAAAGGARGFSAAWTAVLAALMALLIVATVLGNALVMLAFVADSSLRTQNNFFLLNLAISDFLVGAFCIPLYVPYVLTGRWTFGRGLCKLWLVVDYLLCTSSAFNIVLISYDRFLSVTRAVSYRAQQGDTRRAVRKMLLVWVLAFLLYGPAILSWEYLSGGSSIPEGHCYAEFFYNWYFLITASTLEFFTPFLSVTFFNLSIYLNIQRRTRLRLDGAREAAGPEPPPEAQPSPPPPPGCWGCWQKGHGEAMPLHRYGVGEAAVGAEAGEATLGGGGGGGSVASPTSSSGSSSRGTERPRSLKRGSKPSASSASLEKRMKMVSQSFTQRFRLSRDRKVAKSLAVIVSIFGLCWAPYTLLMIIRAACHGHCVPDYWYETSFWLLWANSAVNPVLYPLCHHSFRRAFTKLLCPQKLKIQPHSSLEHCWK

Ki	SMILES
< 0.01 µM	COC[C@H](C)NC(=O)c1ccc(-c2ccc3c(c2)CCN(CCN2CCCC2)C3=O)cc1 [Example 126, N-[(1S)-2-methoxy-1-methylethyl]-4-[1-oxo-2-(2-pyrrolidin-1-ylethyl)-1,2,3,4-tetrahydroisoquinolin-6-yl]benzamide]
0.0101 to 0.025 µM	O=C1c2ccc(-n3cccn3)cc2CCN1CCN1CCCC1 [Example 37, 6-(1H-pyrazol-1-yl)-2-(2-(pyrrolidin-1-yl)ethyl)-3,4-dihydroisoquinolin-1(2H)-one hydrochloride]
< 0.01 µM	CCN(CC)C(=O)c1ccc(-c2ccc3c(c2)CCN(CCN2CCCC2)C3=O)cc1 [Example 62, N,N-diethyl-4-[1-oxo-2-(2-pyrrolidin-1-ylethyl)-1,2,3,4-tetrahydroisoquinolin-6-yl]benzamide]
< 0.01 µM	CC(C)OCCNC(=O)c1ccc(-c2ccc3c(c2)CCN(CCN2CCCC2)C3=O)cc1 [Example 70, N-(2-isopropoxyethyl)-4-[1-oxo-2-(2-pyrrolidin-1-ylethyl)-1,2,3,4-tetrahydroisoquinolin-6-yl]benzamide]
< 0.01 µM	CNC(=O)c1ccc(-c2ccc3c(c2)CCN(CCN2CCCC2)C3=O)cc1 [Example 59, N-methyl-4-[1-oxo-2-(2-pyrrolidin-1-ylethyl)-1,2,3,4-tetrahydroisoquinolin-6-yl]benzamide]
< 0.01 µM	O=C1c2ccc(-c3ccncc3)cc2CCN1CCN1CCCC1 [Example 34, 6-pyridin-4-yl-2-(2-pyrrolidin-1-ylethyl)-3,4-dihydroisoquinolin-1(2)-one Hydrochloride]
< 0.01 µM	O=C(c1ccc(-c2ccc3c(c2)CCN(CCN2CCCC2)C3)cc1)N1CCCC1 [Example 184, 6-[4-(pyrrolidin-1-ylcarbonyl)phenyl]-2-(2-pyrrolidin-1-ylethyl)-1,2,3,4-tetrahydroisoquinoline]
< 0.01 µM	CCNC(=O)c1ccc(-c2ccc3c(c2)C(=O)N(CCN2CCC[C@H]2C)CC3)cc1 [Example 84, N-ethyl-4-(2-{2-[(2R)-2-methylpyrrolidin-1-yl]ethyl}-1-oxo-1,2,3,4-tetrahydroiso-quinolin-7-yl)benzamide]
< 0.01 µM	CC(C)NC(=O)c1ccc(-c2ccc3c(c2)CCN(CCN2CCC[C@H]2C)C3=O)cc1 [Example 77, N-isopropyl-4-(2-{2-[(2R)-2-methylpyrrolidin-1-yl]ethyl}-1-oxo-1,2,3,4-tetrahydroisoquinolin-6-yl)benzamide]
< 0.01 µM	C[C@@H]1CCCN1CCN1CCc2cc(C(=O)NC3CCCCC3)ccc2C1=O [Example 147, N-cyclohexyl-2-{2-[(2R)-2-methylpyrrolidin-1-yl]ethyl}-1-oxo-1,2,3,4-tetrahydroisoquinoline-6-carboxamide]
< 0.01 µM	C[C@@H]1CCCN1CCN1CCc2cc(C(=O)NC3CCC3)ccc2C1=O [Example 145, N-cyclobutyl-2-{2-[(2R)-2-methylpyrrolidin-1-yl]ethyl}-1-oxo-1,2,3,4-tetrahydroisoquinoline-6-carboxamide]
< 0.01 µM	CC(C)NC(=O)c1ccc(-c2ccc3c(c2)C(=O)N(CCN2CCC[C@H]2C)CC3)cc1 [Example 85, N-isopropyl-4-(2-{2-[(2R)-2-methylpyrrolidin-1-yl]ethyl}-1-oxo-1,2,3,4-tetrahydroiso-quinolin-7-yl)benzamide]
< 0.01 µM	N#Cc1cccc(-c2ccc3c(c2)CCN(CCN2CCCC2)C3=O)c1 [Example 15, 3-[1-oxo-2-(2-pyrrolidin-1-ylethyl)-1,2,3,4-tetrahydroisoquinolin-6-yl]benzonitrile]
< 0.01 µM	COC[C@@H]1CCCN1C(=O)c1ccc(-c2ccc3c(c2)CCN(CCN2CCCC2)C3=O)cc1 [Example 128, 6-(4-{[(2S)-2-(methoxymethyl)pyrrolidin-1-yl]carbonyl}phenyl)-2-(2-pyrrolidin-1-ylethyl)-3,4-dihydroisoquinolin-1(2H)-one]
0.0101 to 0.025 µM	N#Cc1ccc(-c2ccc3c(c2)CCN(CCCN2CCCCC2)C3=O)cc1 [Example 45, 4-[1-oxo-2-(3-piperidin-1-ylpropyl)-1,2,3,4-tetrahydroisoquinolin-6-yl]benzonitrile hydrochloride]
< 0.01 µM	O=C(NCCF)c1ccc(-c2ccc3c(c2)CCN(CCN2CCCC2)C3=O)cc1 [Example 68, N-(2-fluoroethyl)-4-[1-oxo-2-(2-pyrrolidin-1-ylethyl)-1,2,3,4-tetrahydroisoquinolin-6-yl]benzamide]

Ki	SMILES
0.0101 to 0.025 µM	C[C@@H]1CCCN1CCN1CCc2c(cccc2-c2ccc(C#N)cc2)C1=O [Example 28, 4-(2-{2-[(2R)-2-methylpyrrolidin-1-yl]ethyl}-1-oxo-1,2,3,4-tetrahydroisoquinolin-5-yl)benzonitrile]
< 0.01 µM	C[C@@H]1CCCN1CCN1CCc2cc(-c3ccc(C(=O)NCC4CC4)cc3)ccc2C1=O [Example 73, N-(cyclopropylmethyl)-4-(2-{2-[(2R)-2-methylpyrrolidin-1-yl]ethyl}-1-oxo-1,2,3,4-tetrahydroisoquinolin-6-yl)benzamide]
< 0.01 µM	C[C@@H]1CCCN1CCN1CCc2ccc(-c3ccc(C#N)cc3)cc2C1=O [Example 26, 4-(2-{2-[(2R)-2-methylpyrrolidin-1-yl]ethyl}-1-oxo-1,2,3,4-tetrahydroisoquinolin-7-yl)benzonitrile]
< 0.01 µM	C[C@@H]1CCCN1CCN1CCc2cc(N3CCCCC3)ccc2C1=O [Example 161, 2-{2-[(2R)-2-methylpyrrolidin-1-yl]ethyl}-6-piperidin-1-yl-3,4-dihydroisoquinolin-1(2H)-one]
< 0.01 µM	C[C@@H]1CCCN1CCN1CCc2cc(C(=O)NC3Cc4ccccc4C3)ccc2C1=O [Example 148, N-(2,3-dihydro-1H-inden-2-yl)-2-{2-[(2R)-2-methylpyrrolidin-1-yl]ethyl}-1-oxo-1,2,3,4-tetrahydroisoquinoline-6-carboxamide]
0.0251 to 0.05 µM	N#Cc1cccc(-c2ccc3c(c2)CCN(CCCN2CCCC2)C3=O)c1 [Example 33, 3-[1-oxo-2-(3-pyrrolidin-1-ylpropyl)-1,2,3,4-tetrahydroisoquinolin-6-yl]benzonitrile]
< 0.01 µM	C[C@@H]1CCCN1CCN1CCc2cc(C(=O)N3CCCCC3)ccc2C1=O [Example 146, 2-{2-[(2R)-2-methylpyrrolidin-1-yl]ethyl}-6-(piperidin-1-ylcarbonyl)-3,4-dihydroisoquinolin-1(2H)-one]
0.0101 to 0.025 µM	C[C@@H]1CCCN1C(=O)c1ccc(-c2ccc3c(c2)CCN(CCN2CCCC2)C3)cc1 [Example 187]
< 0.01 µM	O=C(c1ccc(-c2ccc3c(c2)CCN(CCN2CCCC2)C3=O)cc1)N1CCCCC1 [Example 79, 6-[4-(piperidin-1-ylcarbonyl)phenyl]-2-(2-pyrrolidin-1-ylethyl)-3,4-dihydroisoquinolin-1(2H)-one]
< 0.01 µM	O=C(c1ccc(-c2ccc3c(c2)CCN(CCN2CCCC2)C3)cc1)N1CCOCC1 [Example 186, 6-[4-(morpholin-4-ylcarbonyl)phenyl]-2-(2-pyrrolidin-1-ylethyl)-1,2,3,4-tetrahydroisoquinoline]
< 0.01 µM	C[C@@H]1CCCN1CCN1CCc2cc(C(=O)N3Cc4ccccc4C3)ccc2C1=O [Example 152, 6-(1,3-dihydro-2H-isoindol-2-ylcarbonyl)-2-{2-[(2R)-2-methylpyrrolidin-1-yl]ethyl}-3,4-dihydroisoquinolin-1(2H)-one]
< 0.01 µM	CON(C)C(=O)c1ccc(-c2ccc3c(c2)CCN(CCN2CCCC2)C3=O)cc1 [Example 102, N-methoxy-N-methyl-4-(1-oxo-2-(2-(pyrrolidin-1-yl)ethyl)-1,2,3,4-tetrahydroisoqui-nolin-6-yl)benzamide]
0.0251 to 0.05 µM	CN(C)C(=O)c1ccc(Oc2ccc3c(c2)CCN(CCN2CCCC2)C3=O)cc1 [Example 95, N,N-dimethyl-4-{[1-oxo-2-(2-pyrrolidin-1-ylethyl)-1,2,3,4-tetrahydroisoquinolin-6-yl]oxy}benzamide]
< 0.01 µM	C[C@@H]1CCCN1CCN1CCc2cc(C(=O)NC3CCCC3)ccc2C1=O [Example 149, N-cyclopentyl-2-{2-[(2R)-2-methylpyrrolidin-1-yl]ethyl}-1-oxo-1,2,3,4-tetrahydroisoquinoline-6-carboxamide]
< 0.01 µM	C[C@@H]1CCCN1CCN1CCc2cc(-c3ccc4c(c3)CCNC4=O)ccc2C1=O [Example 157, (R)-2-(2-(2-methylpyrrolidin-1-yl)ethyl)-3,3′,4,4′-tetrahydro-6,6′-biisoquinoline-1,1′(2H,2′H-dione hydrochloride]
0.0101 to 0.025 µM	CCOCCNC(=O)c1ccc(-c2ccc3c(c2)CCN(CCN2CCCC2)C3=O)cc1 [Example 72, N-(2-ethoxyethyl)-4-[1-oxo-2-(2-pyrrolidin-1-ylethyl)-1,2,3,4-tetrahydroisoquinolin-6-yl]benzamide]
